Active and inactive are the calls of the source.
Assays:
Melanocortin receptor 4 = Melanocortin receptor 4 (Homo sapiens, UniProt P32245); experiment: MC4R antagonist potency on cAMP, dose response, cell-based, TR-FRET, biased antagonists (AID 602298); format: functional;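 note: antagonist potency against agonist-stimulated cAMP production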
[1] = target: T1, Ubiquitin-conjugating enzyme E2 N (Homo sapiens, UniProt P61088); format: functional;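 note: Dose-response confirmation in a TR-FRET assay detecting UBC13-driven polyubiquitin chain formation, inhibition measured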
T1 sequence (P61088 whole entry): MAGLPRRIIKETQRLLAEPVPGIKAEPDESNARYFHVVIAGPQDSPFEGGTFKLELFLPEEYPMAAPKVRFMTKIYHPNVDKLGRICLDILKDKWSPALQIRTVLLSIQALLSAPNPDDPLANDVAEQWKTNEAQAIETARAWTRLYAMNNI

[2] = target: T2, DNA repair protein RAD52 homolog (Homo sapiens, UniProt P43351); format: functional, biochemical
T2 sequence (P43351 whole entry): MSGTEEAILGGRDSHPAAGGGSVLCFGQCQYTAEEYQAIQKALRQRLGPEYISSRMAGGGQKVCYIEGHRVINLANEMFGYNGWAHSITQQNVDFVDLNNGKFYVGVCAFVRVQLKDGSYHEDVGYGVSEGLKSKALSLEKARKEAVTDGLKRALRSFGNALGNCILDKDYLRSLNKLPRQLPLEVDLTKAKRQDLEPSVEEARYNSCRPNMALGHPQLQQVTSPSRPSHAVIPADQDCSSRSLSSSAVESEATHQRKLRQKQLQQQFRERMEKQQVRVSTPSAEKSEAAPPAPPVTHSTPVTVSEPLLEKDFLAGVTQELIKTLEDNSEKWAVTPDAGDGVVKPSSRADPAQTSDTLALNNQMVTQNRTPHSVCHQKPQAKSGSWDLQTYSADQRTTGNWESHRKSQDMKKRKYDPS

[3] = nonselective inhibitors of cellular cAMP signaling, dose response, counter-screen for MC4R biased antagonist project, cell-based, TR-FRET cAMP detection (AID 602305); format: functional;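 note: U2OS cells stimulated with forskolin near its EC80 as the cAMP inducer; potency is for inhibition of forskolin-stimulated cAMP signaling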
[4] = target: Type-1 angiotensin II receptor (Homo sapiens, UniProt P30556); experiment: AT1 receptor antagonists, dose response, selectivity assay for APJ receptor antagonist project, cell-based, uHTS hits (AID 463214); format: functional;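 note: antagonist potency against angiotensin II stimulated AT1 response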
Bcl-2-related protein A1 = target: T3, Bcl-2-related protein A1 (Mus musculus, UniProt Q07440); format: functional;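 note: confirmatory dose–response counterscreen on Bfl-1, used to check hits from a UBC13 polyubiquitin inhibitor campaign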
T3 sequence (Q07440 whole entry): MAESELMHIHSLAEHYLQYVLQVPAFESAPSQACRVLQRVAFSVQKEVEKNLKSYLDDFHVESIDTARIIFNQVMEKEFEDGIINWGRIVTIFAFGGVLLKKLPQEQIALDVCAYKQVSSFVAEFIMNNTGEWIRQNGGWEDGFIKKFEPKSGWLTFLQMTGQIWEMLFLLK

Beta-galactosidase = Beta-galactosidase (Escherichia coli, UniProt Q8VNN2); experiment: PubChem AID 485352; format: functional
Hexokinase HKDC1 = target: T4, Hexokinase HKDC1 (Homo sapiens, UniProt Q2TB90); experiment: SAR analysis of small molecule inhibitors of hexokinase domain containing I (HKDC1). [Related pubchem assays (depositor defined):AID493160, AID493190]; format: functional
T4 sequence (Q2TB90 whole entry): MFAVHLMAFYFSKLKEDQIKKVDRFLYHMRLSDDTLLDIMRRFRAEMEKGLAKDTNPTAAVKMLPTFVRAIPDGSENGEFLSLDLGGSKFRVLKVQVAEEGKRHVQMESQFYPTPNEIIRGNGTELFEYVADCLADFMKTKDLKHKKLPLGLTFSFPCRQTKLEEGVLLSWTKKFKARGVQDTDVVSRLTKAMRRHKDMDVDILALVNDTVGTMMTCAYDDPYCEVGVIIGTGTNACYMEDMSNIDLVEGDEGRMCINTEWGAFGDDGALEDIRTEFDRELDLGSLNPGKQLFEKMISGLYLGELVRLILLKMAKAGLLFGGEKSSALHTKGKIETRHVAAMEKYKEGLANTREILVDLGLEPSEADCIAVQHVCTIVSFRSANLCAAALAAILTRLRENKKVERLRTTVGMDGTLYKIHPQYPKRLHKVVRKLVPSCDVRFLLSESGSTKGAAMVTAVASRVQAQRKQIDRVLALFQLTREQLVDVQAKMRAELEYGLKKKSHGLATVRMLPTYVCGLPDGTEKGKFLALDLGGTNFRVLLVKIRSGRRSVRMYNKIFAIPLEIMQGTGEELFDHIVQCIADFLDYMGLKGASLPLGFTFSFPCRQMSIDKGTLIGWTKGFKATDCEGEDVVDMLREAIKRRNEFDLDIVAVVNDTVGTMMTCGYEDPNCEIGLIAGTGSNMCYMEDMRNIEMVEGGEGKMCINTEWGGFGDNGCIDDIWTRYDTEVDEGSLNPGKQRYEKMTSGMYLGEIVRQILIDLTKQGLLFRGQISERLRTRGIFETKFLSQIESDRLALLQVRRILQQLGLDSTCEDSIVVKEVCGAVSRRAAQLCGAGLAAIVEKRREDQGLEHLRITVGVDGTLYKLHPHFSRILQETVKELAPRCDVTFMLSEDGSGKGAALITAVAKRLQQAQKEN

Hexokinase-1 = Hexokinase-1 (Homo sapiens, UniProt P19367); experiment: SAR analysis of small molecule inhibitors of hexokinase domain containing I (HKDC1) in the hexokinase 1 selectivity assay. [Related pubchem assays (depositor defined):AID493160, AID493190]; format: functional
Major prion protein = Major prion protein (Homo sapiens, UniProt P04156); format: functional, cell-based
INS1 [5] = experiment: protection from cytokine-induced mitochondrial depolarization, dose response, cell-based, INS-1E, JC-1 fluorescence ratio, dry powder (AID 488931); format: functional; settings: Rattus norvegicus
[6] = inhibitors of cytokine-induced nitrite release, dose response, cell-based, Griess absorbance, INS-1E, dry powder, set 3 (AID 488870); format: functional; settings: Rattus norvegicus
INS1 [7] = experiment: protection from cytokine-driven beta-cell apoptosis, dose response, JC-1 fluorescence, INS-1E, dry powder, set 2 (AID 488867); format: functional, cell-based; settings: Rattus norvegicus
INS1 [8] = experiment: protection of INS-1E cells from cytokine death, dose response, ATP luminescence, dry powder (AID 488844); format: functional, cell-based; settings: Rattus norvegicus

Question: With `CCC[C@@H](CN1CCC[C@H]1CN1C(N)=NC[C@H]1CC(C)C)N1C[C@@H](Cc2ccccc2)N(CCc2ccc(Cl)c(Cl)c2)C1=N` as the compound, how does the IC50 (Melanocortin receptor 4) read?
Answer: 7.65 µM (active)

Question: What about the IC50 [1] of the same compound?
Answer: 12.5 µM (active)

Question: What about the AC50 [2] of the same compound?
Answer: 14.7 µM (active)

Question: And the IC50 [3]?
Answer: > 64.6 µM (inactive)

Question: And the IC50 [4]?
Answer: > 40 µM (not active)

Question: What about the IC50 (Bcl-2-related protein A1) of the same compound?
Answer: > 20 µM (inactive)

Question: What about the EC50 (Beta-galactosidase) of the same compound?
Answer: > 40 µM (inactive)

Question: Which IC50 (Hexokinase HKDC1) does the source give for `O=C(CSc1ncnc2ccccc12)Nc1cccc(S(=O)(=O)N2CCOCC2)c1` here?
Answer: > 80 µM (inactive)

Question: And the IC50 (Hexokinase-1)?
Answer: > 80 µM (inactive)

Question: And the IC50 (Major prion protein)?
Answer: 9.12 µM (active)

Question: And the IC50 (cells)?
Answer: > 138 µM (inactive)

Question: Which results are given for `COc1ccc(S(=O)(=O)N(C)C[C@H]2Oc3c(NC(=O)Nc4cccc5ccccc45)cccc3C(=O)N([C@H](C)CO)C[C@@H]2C)cc1`?
Answer: AC50 (INS1 [5]): 33.7 µM (active); AC50 [6]: 63.9 µM (active); AC50 (INS1 [7]): 43.4 µM (active); AC50 (INS1 [8]): 21.9 µM (active)
